The source of these data is publication PMC3401280, “Moth Sex Pheromone Receptors and Deceitful Parapheromones” (PLoS ONE, 2012).

Common to all, as to format: cell-based
In assay [1] the target is T1, HvirOR13 (HR13) (Heliothis virescens, UniProt Q6A1K1).
T1 construct: full ORF (AJ748328) in pGEMHE, expressed in Xenopus oocytes; with HvirOrco (HR2)
T1 sequence (Q6A1K1 1-425): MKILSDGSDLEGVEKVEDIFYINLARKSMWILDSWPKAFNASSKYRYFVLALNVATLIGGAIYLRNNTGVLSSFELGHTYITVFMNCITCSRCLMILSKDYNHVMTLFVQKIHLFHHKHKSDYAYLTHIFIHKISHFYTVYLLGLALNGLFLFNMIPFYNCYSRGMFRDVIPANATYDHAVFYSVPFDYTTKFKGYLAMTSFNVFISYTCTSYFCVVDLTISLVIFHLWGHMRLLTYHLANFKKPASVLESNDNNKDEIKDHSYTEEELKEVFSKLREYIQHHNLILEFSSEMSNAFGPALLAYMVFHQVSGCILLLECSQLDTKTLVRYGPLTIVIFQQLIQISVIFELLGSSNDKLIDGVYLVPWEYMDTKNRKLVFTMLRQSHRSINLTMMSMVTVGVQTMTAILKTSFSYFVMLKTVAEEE
T1 sequence (Q8MMI4 1-472 partner): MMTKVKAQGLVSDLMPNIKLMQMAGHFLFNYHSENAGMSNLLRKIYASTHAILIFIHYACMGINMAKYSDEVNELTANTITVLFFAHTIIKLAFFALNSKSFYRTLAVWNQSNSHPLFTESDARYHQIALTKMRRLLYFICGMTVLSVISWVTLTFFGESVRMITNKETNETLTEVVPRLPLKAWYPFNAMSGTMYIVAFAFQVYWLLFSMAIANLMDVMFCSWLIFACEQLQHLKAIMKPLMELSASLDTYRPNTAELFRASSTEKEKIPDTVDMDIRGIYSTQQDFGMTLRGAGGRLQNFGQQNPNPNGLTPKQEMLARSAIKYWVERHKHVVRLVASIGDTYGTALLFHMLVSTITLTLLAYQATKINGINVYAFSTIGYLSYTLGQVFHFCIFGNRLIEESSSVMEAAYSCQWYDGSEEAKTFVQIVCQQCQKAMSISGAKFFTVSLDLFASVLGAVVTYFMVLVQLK
In words: two-electrode voltage clamp in Xenopus oocytes. For orientation: Two-electrode voltage clamp holds a large cell at a set potential and records current.

Assay [2] has as its target T2, AtraOR1 (Amyelois transitella, UniProt J7FXC2).
T2 construct: full ORF (428 residues, JX173648) in pGEMHE, expressed in Xenopus oocytes; with AtraOrco
T2 sequence (J7FXC2 1-427): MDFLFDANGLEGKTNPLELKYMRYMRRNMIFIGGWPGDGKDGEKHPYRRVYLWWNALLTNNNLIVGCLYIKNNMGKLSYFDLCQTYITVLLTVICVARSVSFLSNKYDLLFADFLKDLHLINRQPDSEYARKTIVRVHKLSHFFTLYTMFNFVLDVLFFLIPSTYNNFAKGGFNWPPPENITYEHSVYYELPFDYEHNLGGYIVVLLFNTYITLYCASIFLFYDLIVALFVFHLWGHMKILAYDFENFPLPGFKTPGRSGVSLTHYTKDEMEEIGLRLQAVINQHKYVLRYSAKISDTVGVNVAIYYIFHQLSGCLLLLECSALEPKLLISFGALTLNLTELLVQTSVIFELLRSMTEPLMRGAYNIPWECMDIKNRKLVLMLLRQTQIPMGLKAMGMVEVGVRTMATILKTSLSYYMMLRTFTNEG
T2 sequence (J7G1V0 1-474 partner): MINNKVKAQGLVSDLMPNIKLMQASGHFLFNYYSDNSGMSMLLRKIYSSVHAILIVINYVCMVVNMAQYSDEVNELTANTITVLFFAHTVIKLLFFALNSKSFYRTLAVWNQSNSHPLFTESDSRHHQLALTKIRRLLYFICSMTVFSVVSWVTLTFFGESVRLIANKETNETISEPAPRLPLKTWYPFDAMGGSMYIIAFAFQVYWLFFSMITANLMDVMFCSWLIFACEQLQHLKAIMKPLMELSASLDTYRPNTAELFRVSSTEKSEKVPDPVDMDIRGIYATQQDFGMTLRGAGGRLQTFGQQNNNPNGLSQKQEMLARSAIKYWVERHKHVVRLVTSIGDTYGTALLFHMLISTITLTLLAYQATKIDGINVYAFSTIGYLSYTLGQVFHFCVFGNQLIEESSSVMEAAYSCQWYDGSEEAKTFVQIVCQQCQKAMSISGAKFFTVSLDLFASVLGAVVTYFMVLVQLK
Description: two-electrode voltage clamp in Xenopus oocytes.

The target in assay [3] is T2, AtraOR1. Description: two-electrode voltage clamp in Xenopus oocytes, screened at […].

Structures can show the parent of a compound that is named as a salt. Where two headings read alike, the source gives them in different places.

As usually defined, the EC50 is the concentration needed to bring the measured effect to its halfway point.

Take `CCCC/C=C\CCCCCCCCOC=O` [Z9-14OFor, (9Z)-tetradecen-1-yl formate]: in assay [1], the EC50 turned out to be 33 nM.
In turn, `CC/C=C\C=C/CCCCCCCCOC=O` [Z9Z11-14OFor, (9Z,11Z)-tetradecadien-1-yl formate] displayed an EC50 in assay [2] of 90 nM.
Turning to `CCCC/C=C\CCCCCCCCCC=O` [Z11-16Ald, (11Z)-hexadecenal], the EC50 in assay [1] (read-out: EC50) was determined as 150 nM.
For `CC/C=C\C=C/CCCCCCCCCC=O` [Z11Z13-16Ald, (11Z,13Z)-hexadecadienal], a half-maximal response in assay [2] (EC50) required 499 nM.
For the molecule `CC/C=C\C=C/CCCCCCCCCCO` [Z11Z13-16OH, (11Z,13Z)-hexadecadien-1-ol], the “two-electrode voltage clamp in Xenopus oocytes, screened at 100 μM” value in assay [3] was “AtraOR1•AtraOrco-expressing oocytes showed moderate response to Z11Z13-16OH”.
